Experimental data: PubChem BioAssay AID2060503 (Molecular Pharmacology Branch, DTP, NCI, 2025)

test system: 817829-284-R-J1-PDC complex spheroids, viability; assay: Anticancer human tumor 817829-284-R-J1-PDC patient-derived colon adenocarcinoma cell line growth inhibition [GQUAD]; conditions: second compound 0.316 µM; first compound 1 µM; stronger effect = lower value
Text: DNA G-quadruplex Stabilizer Agents in Combinations in Complex Spheroids
A high-throughput screen of multi-cell type tumor spheroids was designed to identify active combinations of DNA G-quadruplex stabilizer agents and targeted small molecules. Complex spheroids include a stromal component modeled by human endothelial cells (HUVEC) and fibroblasts modeled by human mesenchymal stem cells (MSCs). The concentration ranges selected for each drug and investigational agent were based upon clinically achievable concentrations if the clinical Cmax of the agent was known.
Compounds. The drugs and investigational agents: pidnarulex (CX-5461; NSC782164), APTO-253 (NSC789042), BRACO-19 (NSC847499), peposertib (NSC802822), ceralasertib (NSC780249), elimusertib (NSC800525), camonsertib (NSC841442), AZD-1390 (NSC803789), olaparib (NSC753686), talazoparib (NSC767125), ART-558 (NSC835418), sotorasib (NSC818433), MRTX-1133 (NSC836407), SN-38 (NSC673596), topotecan (NSC609699), etoposide (NSC141540), doxorubicin (NSC123127), gemcitabine (NSC613327), 5-fluorouracil (NSC19893), paclitaxel (NSC125973), vemurafenib (NSC761431), panobinostat (NSC761190), R-306465 (JNJ-16241199; NSC773264), adavosertib (NSC754352), TP-3654 (NSC805149), carboplatin (NSC241240), KSQ-4279 (NSC840948), and staurosporine (NSC755774) were obtained from the National Cancer Institute (NCI) Developmental Therapeutics Program Chemical Repository (34). The FDA-approved anticancer drug set is available from the NCI Developmental Therapeutics Program. […] The stock solutions were prepared in dimethyl sulfoxide (DMSO, Sigma-Aldrich, St. Louis, MO, cat. D2650) at 800-fold the tested concentration and stored at -70 degrees C prior to their use. All drugs and investigational agents were tested over a range starting from a high concentration at or near the clinical Cmax and decreasing in half-log increments. If the clinical Cmax for an agent had not been determined, the highest concentration tested was 10 microM.
2.3 Cell Culture. All cells were maintained in an incubator at 37 degrees C and 5% CO2 with 95% humidity. The PDC lines were cultured according to standard operating procedures established by the NCI PDMR. All PDCs were thawed and cultured in Matrigel-coated flasks prepared with a working solution of 1X Ham's F-12 nutrient mix, without supplementation (Invitrogen, cat. 11765054), 100 U/mL penicillin-streptomycin (Invitrogen, cat. 15140122), and 2.5% Matrigel (Corning Inc., cat. 354248) for the first three passages. The 857933-349-R-J2-PDC line was cultured in 6C/Colon 1B media, which includes advanced DMEM/F-12 (Thermo Fisher Scientific, cat. 12634028), 10 mM HEPES (Thermo Fisher Scientific, cat. 15630080), 1X GlutaMAX supplement (Thermo Fisher Scientific, cat. 35050061), 0.1 mg/mL primocin (InvivoGen, cat. ant-pm-2), 10% defined fetal bovine serum, heat inactivated (HyClone Laboratories Inc., cat. SH30070.03HI), 50% L-WRN conditioned media (ATCC, cat. CRL-3276), 1.25 mM N-Acetyl-L-cysteine (Sigma-Aldrich, cat. A9165), 10 mM nicotinamide (Sigma-Aldrich, cat. N0636), 1X B-27 supplement (Thermo Fisher Scientific, cat. 17504044), 1X N-2 supplement (Thermo Fisher Scientific, cat. 17502048), 10 microM Y-27632 dihydrochloride (Tocris Bioscience, cat. 1254), and 50 ng/mL human EGF recombinant protein (Thermo Fisher Scientific, cat. PHG0311). The 485176-168-R4-J1-PDC line was cultured in Panc media, which includes all 6C/Colon 1B media components plus 100 ng/mL human FGF-10 (Thermo Fisher Scientific, cat. 100-26), 500 nM SB-431542 (Selleckchem, cat. S1067), and gastrin (Tocris, cat. 3006).
[…]
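Also: spheroids exposed to agents for 7 days before readout; percent viability relative to DMSO vehicle control taken as 100%.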

| Structure (SMILES) | viability, T/C [%] |
| --- | --- |
| CC(C)(O)C1CCC(Nc2ccc3ncc(-c4cccc(C(F)(F)F)c4)n3n2)CC1 (stereo unspecified) + CN(C)c1ccc(Nc2c3ccc(NC(=O)CCN4CCCC4)cc3nc3cc(NC(=O)CCN4CCCC4)ccc23)cc1 | 97.1 |
| CC1COCCN1c1cc(-c2ccnn2C)c2ccnc(-c3ccn[nH]3)c2n1 (stereo unspecified) + Cc1[nH]c2ccc(F)cc2c1-c1nc2c3cccnc3c3ncccc3c2[nH]1 | 7.38 |
| CC1COCCN1c1cc(C2(S(C)(=N)=O)CC2)nc(-c2ccnc3[nH]ccc23)n1 (stereo unspecified) + Cc1[nH]c2ccc(F)cc2c1-c1nc2c3cccnc3c3ncccc3c2[nH]1 | 27.5 |
| COc1ccc([C@@H](O)c2cc(-c3ncnc4cc(N5CCOCC5)ccc34)c(F)cc2Cl)nn1 + Cc1[nH]c2ccc(F)cc2c1-c1nc2c3cccnc3c3ncccc3c2[nH]1 | 97.8 |

same assay, conditions: second compound 0.316 µM; first compound 3.16 µM; stronger effect = lower value

| Structure (SMILES) | viability, T/C [%] |
| --- | --- |
| CC(C)(O)C1CCC(Nc2ccc3ncc(-c4cccc(C(F)(F)F)c4)n3n2)CC1 (stereo unspecified) + CN(C)c1ccc(Nc2c3ccc(NC(=O)CCN4CCCC4)cc3nc3cc(NC(=O)CCN4CCCC4)ccc23)cc1 | 33.4 |
| CC1COCCN1c1cc(-c2ccnn2C)c2ccnc(-c3ccn[nH]3)c2n1 (stereo unspecified) + Cc1[nH]c2ccc(F)cc2c1-c1nc2c3cccnc3c3ncccc3c2[nH]1 | 5.29 |
| CC1COCCN1c1cc(C2(S(C)(=N)=O)CC2)nc(-c2ccnc3[nH]ccc23)n1 (stereo unspecified) + Cc1[nH]c2ccc(F)cc2c1-c1nc2c3cccnc3c3ncccc3c2[nH]1 | 11.1 |
| COc1ccc([C@@H](O)c2cc(-c3ncnc4cc(N5CCOCC5)ccc34)c(F)cc2Cl)nn1 + Cc1[nH]c2ccc(F)cc2c1-c1nc2c3cccnc3c3ncccc3c2[nH]1 | 81.5 |

same assay, conditions: second compound 0.316 µM; first compound 10 µM; stronger effect = lower value

| Structure (SMILES) | viability, T/C [%] |
| --- | --- |
| CC(C)(O)C1CCC(Nc2ccc3ncc(-c4cccc(C(F)(F)F)c4)n3n2)CC1 (stereo unspecified) + CN(C)c1ccc(Nc2c3ccc(NC(=O)CCN4CCCC4)cc3nc3cc(NC(=O)CCN4CCCC4)ccc23)cc1 | 47.3 |
| CC1COCCN1c1cc(-c2ccnn2C)c2ccnc(-c3ccn[nH]3)c2n1 (stereo unspecified) + Cc1[nH]c2ccc(F)cc2c1-c1nc2c3cccnc3c3ncccc3c2[nH]1 | 4.46 |
| CC1COCCN1c1cc(C2(S(C)(=N)=O)CC2)nc(-c2ccnc3[nH]ccc23)n1 (stereo unspecified) + Cc1[nH]c2ccc(F)cc2c1-c1nc2c3cccnc3c3ncccc3c2[nH]1 | 8.75 |
| COc1ccc([C@@H](O)c2cc(-c3ncnc4cc(N5CCOCC5)ccc34)c(F)cc2Cl)nn1 + Cc1[nH]c2ccc(F)cc2c1-c1nc2c3cccnc3c3ncccc3c2[nH]1 | 51.6 |

same assay, conditions: second compound 1 µM; first compound 0.0316 µM; stronger effect = lower value

| Structure (SMILES) | viability, T/C [%] |
| --- | --- |
| CC(C)(O)C1CCC(Nc2ccc3ncc(-c4cccc(C(F)(F)F)c4)n3n2)CC1 (stereo unspecified) + CN(C)c1ccc(Nc2c3ccc(NC(=O)CCN4CCCC4)cc3nc3cc(NC(=O)CCN4CCCC4)ccc23)cc1 | 92.9 |
| CC1COCCN1c1cc(-c2ccnn2C)c2ccnc(-c3ccn[nH]3)c2n1 (stereo unspecified) + Cc1[nH]c2ccc(F)cc2c1-c1nc2c3cccnc3c3ncccc3c2[nH]1 | 38.1 |
| CC1COCCN1c1cc(C2(S(C)(=N)=O)CC2)nc(-c2ccnc3[nH]ccc23)n1 (stereo unspecified) + Cc1[nH]c2ccc(F)cc2c1-c1nc2c3cccnc3c3ncccc3c2[nH]1 | 89.8 |
| COc1ccc([C@@H](O)c2cc(-c3ncnc4cc(N5CCOCC5)ccc34)c(F)cc2Cl)nn1 + Cc1[nH]c2ccc(F)cc2c1-c1nc2c3cccnc3c3ncccc3c2[nH]1 | 96.5 |

same assay, conditions: second compound 1 µM; first compound 0.1 µM; stronger effect = lower value

| Structure (SMILES) | viability, T/C [%] |
| --- | --- |
| CC(C)(O)C1CCC(Nc2ccc3ncc(-c4cccc(C(F)(F)F)c4)n3n2)CC1 (stereo unspecified) + CN(C)c1ccc(Nc2c3ccc(NC(=O)CCN4CCCC4)cc3nc3cc(NC(=O)CCN4CCCC4)ccc23)cc1 | 103 |
| CC1COCCN1c1cc(-c2ccnn2C)c2ccnc(-c3ccn[nH]3)c2n1 (stereo unspecified) + Cc1[nH]c2ccc(F)cc2c1-c1nc2c3cccnc3c3ncccc3c2[nH]1 | 19.6 |
| CC1COCCN1c1cc(C2(S(C)(=N)=O)CC2)nc(-c2ccnc3[nH]ccc23)n1 (stereo unspecified) + Cc1[nH]c2ccc(F)cc2c1-c1nc2c3cccnc3c3ncccc3c2[nH]1 | 117 |
| COc1ccc([C@@H](O)c2cc(-c3ncnc4cc(N5CCOCC5)ccc34)c(F)cc2Cl)nn1 + Cc1[nH]c2ccc(F)cc2c1-c1nc2c3cccnc3c3ncccc3c2[nH]1 | 111 |

same assay, conditions: second compound 1 µM; first compound 0.316 µM; stronger effect = lower value

| Structure (SMILES) | viability, T/C [%] |
| --- | --- |
| CC(C)(O)C1CCC(Nc2ccc3ncc(-c4cccc(C(F)(F)F)c4)n3n2)CC1 (stereo unspecified) + CN(C)c1ccc(Nc2c3ccc(NC(=O)CCN4CCCC4)cc3nc3cc(NC(=O)CCN4CCCC4)ccc23)cc1 | 95.8 |
